≈ marks a conversion by molar mass, not a printed value. Where two headings read alike, the source gives them in different places.
Key:
[1] = tested on: C. albicans (Calb); assay: MIC broth microdilution assay (NCCLS M27-A); assay type: cell-based; conditions: Candida albicans, read-out: Minimal Inhibitory Concentrations
[2] = tested on: OVCAR-3; assay: In vitro cytotoxic efficacy (MTT); assay type: cell-based; conditions: Homo sapiens, Ovarian, 96 h
[3] = tested on: HT29; assay: In vitro cytotoxic efficacy (MTT); assay type: cell-based; conditions: Homo sapiens
[4] = tested on: LB1319-MEL; assay: In vitro cytotoxic efficacy (MTT); assay type: cell-based; conditions: Melanoma, 96 h
[5] = tested on: MCF7; assay: In vitro cytotoxic efficacy (MTT); assay type: cell-based; conditions: Homo sapiens
[6] = tested on: C. albicans (Ctro); assay: MIC broth microdilution assay (NCCLS M27-A); assay type: cell-based; conditions: Candida albicans, read-out: Minimal Inhibitory Concentrations
[7] = tested on: DU-145; assay: In vitro cytotoxic efficacy (MTT); assay type: cell-based; conditions: Homo sapiens, Prostate, 96 h
[8] = tested on: Candida sp. (Cflu); assay: MIC broth microdilution assay (NCCLS M27-A); assay type: cell-based; conditions: read-out: Minimal Inhibitory Concentrations
[9] = tested on: S. cerevisiae (Scer); assay: MIC broth microdilution assay (NCCLS M27-A); conditions: Saccharomyces cerevisiae, read-out: Minimal Inhibitory Concentrations
[10] = tested on: SK-OV3; assay: In vitro cytotoxic efficacy (MTT); assay type: cell-based; conditions: Homo sapiens
[11] = tested on: C. glabrata (Cgla); assay: MIC broth microdilution assay (NCCLS M27-A); assay type: cell-based; conditions: Nakaseomyces glabratus, read-out: Minimal Inhibitory Concentrations
[12] = tested on: PANC-1; assay: In vitro cytotoxic efficacy (MTT); assay type: cell-based; conditions: Homo sapiens, Pancreatic, 96 h
[13] = tested on: A549/ATCC; assay: In vitro cytotoxic efficacy (MTT); assay type: cell-based; conditions: Homo sapiens
[14] = tested on: A498; assay: In vitro cytotoxic efficacy (MTT); conditions: Homo sapiens, A498, 96 h
[15] = tested on: PC-3; assay: In vitro cytotoxic efficacy (MTT); conditions: Homo sapiens, PC-3, 96 h
[16] = tested on: MDA-MB-231/ATCC; assay: In vitro cytotoxic efficacy (MTT); conditions: Homo sapiens, MDA-MB-231, 96 h
[17] = tested on: SNB-19; assay: In vitro cytotoxic efficacy (MTT); assay type: cell-based; conditions: Homo sapiens
[18] = tested on: NCI-H460; assay: In vitro cytotoxic efficacy (MTT); assay type: cell-based; conditions: Homo sapiens
[19] = tested on: HCT-15; assay: In vitro cytotoxic efficacy (MTT); assay type: cell-based; conditions: Homo sapiens, Colon, 96 h
[20] = tested on: MDA-MB-435; assay: In vitro cytotoxic efficacy (MTT); assay type: cell-based; conditions: Homo sapiens, Breast, 96 h
[21] = tested on: MOLT-4; assay: In vitro cytotoxic efficacy (MTT); assay type: cell-based; conditions: Homo sapiens, Leukemia, 96 h
[22] = tested on: SK-MEL-2; assay: In vitro cytotoxic efficacy (MTT); assay type: cell-based; conditions: Homo sapiens, Melanoma, 96 h
[23] = tested on: SF-268; assay: In vitro cytotoxic efficacy (MTT); assay type: cell-based; conditions: Homo sapiens, CNS, 96 h
[24] = tested on: SF-539; assay: In vitro cytotoxic efficacy (MTT); assay type: cell-based; conditions: Homo sapiens, CNS, 96 h
[25] = tested on: BT-549; assay: In vitro cytotoxic efficacy (MTT); assay type: cell-based; conditions: Homo sapiens, Breast, 96 h
[26] = tested on: IGROV1; assay: In vitro cytotoxic efficacy (MTT); assay type: cell-based; conditions: Homo sapiens, IGROV-1, Ovarian, 96 h
[27] = tested on: HOP-92; assay: In vitro cytotoxic efficacy (MTT); assay type: cell-based; conditions: Homo sapiens, Non-small cell lung, 96 h
[28] = tested on: SW-620; assay: In vitro cytotoxic efficacy (MTT); assay type: cell-based; conditions: Homo sapiens, Colon, 96 h
[29] = tested on: SK-MEL-28; assay: In vitro cytotoxic efficacy (MTT); assay type: cell-based; conditions: Homo sapiens, Melanoma, 96 h
[30] = tested on: UACC; assay: In vitro cytotoxic efficacy (MTT); assay type: cell-based; conditions: 96 h
[31] = tested on: K562; assay: In vitro cytotoxic efficacy (MTT); assay type: cell-based; conditions: Homo sapiens, Leukemia, 96 h
[32] = tested on: SR; assay: In vitro cytotoxic efficacy (MTT); assay type: cell-based; conditions: Homo sapiens, Leukemia, 96 h
[33] = tested on: HCT-116; assay: In vitro cytotoxic efficacy (MTT); conditions: Homo sapiens, HCT-116, 96 h
[34] = tested on: SN12C; assay: In vitro cytotoxic efficacy (MTT); assay type: cell-based; conditions: Homo sapiens, Renal, 96 h
[35] = tested on: T-47D; assay: In vitro cytotoxic efficacy (MTT); assay type: cell-based; conditions: Homo sapiens, T47D, Breast, 96 h
[36] = tested on: UACC-257; assay: In vitro cytotoxic efficacy (MTT); assay type: cell-based; conditions: Homo sapiens, Melanoma, 96 h
[37] = tested on: OVCAR-4; assay: In vitro cytotoxic efficacy (MTT); assay type: cell-based; conditions: Homo sapiens, Ovarian, 96 h
[38] = tested on: CAKI-1; assay: In vitro cytotoxic efficacy (MTT); assay type: cell-based; conditions: Homo sapiens, Renal, 96 h
[39] = tested on: HCC-2998; assay: In vitro cytotoxic efficacy (MTT); assay type: cell-based; conditions: Homo sapiens, Colon, 96 h
[40] = tested on: KM12; assay: In vitro cytotoxic efficacy (MTT); assay type: cell-based; conditions: Homo sapiens, Colon, 96 h
[41] = tested on: SNB-75; assay: In vitro cytotoxic efficacy (MTT); assay type: cell-based; conditions: Homo sapiens, CNS, 96 h
[42] = tested on: HL-60 (TB); assay: In vitro cytotoxic efficacy (MTT); assay type: cell-based; conditions: Homo sapiens, Leukemia, 96 h
[43] = tested on: M14; assay: In vitro cytotoxic efficacy (MTT); assay type: cell-based; conditions: Homo sapiens, Melanoma, 96 h
[44] = tested on: SF-295; assay: In vitro cytotoxic efficacy (MTT); assay type: cell-based; conditions: Homo sapiens, CNS, 96 h
[45] = tested on: U-251; assay: In vitro cytotoxic efficacy (MTT); assay type: cell-based; conditions: Homo sapiens, CNS, 96 h
[46] = tested on: RPMI-8226; assay: In vitro cytotoxic efficacy (MTT); assay type: cell-based; conditions: Homo sapiens, Leukemia, 96 h
[47] = tested on: OVCAR-8; assay: In vitro cytotoxic efficacy (MTT); assay type: cell-based; conditions: Homo sapiens, Ovarian, 96 h
[48] = tested on: RXF 393; assay: In vitro cytotoxic efficacy (MTT); assay type: cell-based; conditions: Homo sapiens, Renal, 96 h
[49] = tested on: UO-31; assay: In vitro cytotoxic efficacy (MTT); assay type: cell-based; conditions: Homo sapiens, Renal, 96 h
[50] = tested on: NCI/ADR-RES; assay: In vitro cytotoxic efficacy (MTT); assay type: cell-based; conditions: Homo sapiens, Breast, 96 h
[51] = tested on: NCI-H522; assay: In vitro cytotoxic efficacy (MTT); assay type: cell-based; conditions: Homo sapiens, Non-small cell lung, 96 h
[52] = tested on: LOX IMVI; assay: In vitro cytotoxic efficacy (MTT); assay type: cell-based; conditions: Homo sapiens, Melanoma, 96 h
[53] = tested on: SK-MEL-5; assay: In vitro cytotoxic efficacy (MTT); assay type: cell-based; conditions: Homo sapiens, Melanoma, 96 h
[54] = tested on: COLO 205; assay: In vitro cytotoxic efficacy (MTT); assay type: cell-based; conditions: Homo sapiens, Colon, 96 h
[55] = tested on: 786-0; assay: In vitro cytotoxic efficacy (MTT); assay type: cell-based; conditions: Homo sapiens, Renal, 96 h
[56] = tested on: OVCAR-5; assay: In vitro cytotoxic efficacy (MTT); assay type: cell-based; conditions: Homo sapiens, Ovarian, 96 h
[57] = tested on: CCRF-CEM; assay: In vitro cytotoxic efficacy (MTT); assay type: cell-based; conditions: Homo sapiens, Leukemia, 96 h
[58] = tested on: TK-10; assay: In vitro cytotoxic efficacy (MTT); assay type: cell-based; conditions: Homo sapiens, Renal, 96 h
[59] = tested on: EKVX; assay: In vitro cytotoxic efficacy (MTT); assay type: cell-based; conditions: Homo sapiens, Non-small cell lung, 96 h

C\C(=C/C=C/C=C/CC/C=C/C(C)C(O)C(C)C(O)/C=C/C=C/C=C/C=C/C=C/C=C/CC(OS(=O)(=O)O)C(C)C(=O)CC(O)CC(O)/C=C/CC(O)CC(O)CC(O)/C=C/CC(O)CC(O)/C=C/CC(O)CC(O)CCCNC(=N)N)C(=O)O (stereo not shown) [Compound 1]
MIC ([1]; 24 hrs): 4 µg/mL (≈ 3.28 µM)
IC50 [2]: 12 µM
IC50 ([3]; HT-29, Colon, HT29, 96 h, MTT, read-out: IC50): 23 µM
IC50 [4]: 11 µM
IC50 ([5]; Breast, MCF7, 96 h, MTT, read-out: IC50): 18 µM
MIC ([6]; C. albicans (Ctro), 24 hrs): 4 µg/mL (≈ 3.28 µM)
IC50 [7]: 8 µM
MIC ([8]; 24 hrs): 8 µg/mL (≈ 6.57 µM)
MIC ([9]; 24 h): 4 µg/mL (≈ 3.28 µM)
IC50 ([10]; SK-OV-3, Ovarian, SK-OV3, 96 h, MTT, read-out: IC50): 15 µM
MIC ([11]; 24 hrs): 4 µg/mL (≈ 3.28 µM)
IC50 [12]: 15 µM
IC50 ([13]; Non-small cell lung, A549/ATCC, 96 h, MTT, read-out: IC50): 12 µM
IC50 [14]: 13 µM
IC50 [15]: 10 µM
IC50 [16]: 12 µM
IC50 ([17]; CNS, SNB-19, 96 h, MTT, read-out: IC50): 10 µM
IC50 ([18]; Non-small cell lung, NCI-H460, 96 h, MTT, read-out: IC50): 13 µM

C\C(=C/C=C/C=C/CC/C=C/C(C)C(O)C(C)C(O)/C=C/C=C/C=C/C=C/C=C/C=C/CC(O)C(C)C(=O)CC(O)CC(O)/C=C/CC(O)CC(O)CC(O)/C=C/CC(O)CC(O)/C=C/CC(O)CC(O)CCCNC(=N)N)C(=O)O (stereo not shown) [Compound 2]
IC50 [19]: 8 µM
IC50 [20]: 0.9 µM
IC50 [21]: > 25 µM
IC50 [22]: 3 µM
IC50 [23]: 4 µM
IC50 [24]: 3 µM
IC50 [25]: 0.9 µM
MIC ([1]; 48 hrs): 4 µg/mL (≈ 3.51 µM)
IC50 [26]: 0.6 µM
IC50 ([3]; HT-29, 96 h): 4 µM
IC50 [27]: > 25 µM
IC50 [28]: 1 µM
IC50 [29]: 13 µM
IC50 [30]: 8 µM
IC50 [31]: 8 µM
IC50 ([5]; MCF7, 96 h): 0.3 µM
IC50 [32]: 1 µM
IC50 [33]: 2 µM
MIC ([6]; 48 h): 4 µg/mL (≈ 3.51 µM)
IC50 [34]: 7 µM
IC50 [35]: > 25 µM
IC50 [36]: 5 µM
IC50 [37]: > 25 µM
MIC ([8]; 48 hrs): 8 µg/mL (≈ 7.03 µM)
IC50 [38]: 2 µM
IC50 [39]: 0.1 µM
IC50 [40]: 0.8 µM
IC50 [41]: 10 µM
MIC ([9]; 48 h): 4 µg/mL (≈ 3.51 µM)
IC50 [42]: 17 µM
IC50 [43]: 0.5 µM
IC50 [44]: 4 µM
IC50 [45]: 6 µM
IC50 [46]: 6 µM
IC50 [47]: 5 µM
IC50 ([10]; SK-OV-3, 96 h): > 25 µM
MIC ([11]; 48 hrs): 4 µg/mL (≈ 3.51 µM)
IC50 [48]: 0.4 µM
IC50 [49]: 8 µM
IC50 [50]: 24 µM
IC50 ([13]; A549, 96 h): 7 µM
IC50 [51]: 2 µM
IC50 [52]: 6 µM
IC50 [53]: 2 µM
IC50 [14]: 6 µM
IC50 [54]: 7 µM
IC50 [55]: 8 µM
IC50 [56]: 6 µM
IC50 [57]: > 25 µM
IC50 [15]: 4 µM
IC50 [16]: 9 µM
IC50 [58]: 7 µM
IC50 ([17]; SNB-19, 96 h): > 25 µM
IC50 [59]: 8 µM
IC50 ([18]; NCI-H460, 96 h): 2 µM

— patent US20050004185A1, “Polyene polyketides, processes for their production and their use as pharmaceuticals” (priority 2003, published 2005)
